Measured values reported in patent US8399465B2, “Compounds with two fused bicyclic heteroaryl moieties as modulators of leukotriene A4 hydrolase” (Janssen Pharmaceutica NV, priority 2009, dated 2013).
Like-named read-outs stand apart in the source and are kept apart here.

How the values were obtained:
[1] = system: ionophore-induced LTB4 production; settings: oral administration; cited from earlier work
[2] = system: ionophore-induced LTB4 production; settings: oral administration; cited from earlier work; remark: listed apart in the source
colitis symptoms = settings: eight weeks of treatment; cited from earlier work
[3] = system: airway hyperresponsiveness; settings: multiple antigen challenges, primate model; cited from earlier work
[4] = biological target: T1, recombinant human LTA4 hydrolase (rhLTA4H) (Homo sapiens, UniProt P09960); assay: Recombinant human LTA4 hydrolase assay for LTA4 hydrolase inhibitor activity; type: biochemical
T1 construct: made in house; host or cells: Spodoptera frugiperda (Sf-9) cells, baculovirus (pFastBac1)
T1 sequence (P09960 1-611): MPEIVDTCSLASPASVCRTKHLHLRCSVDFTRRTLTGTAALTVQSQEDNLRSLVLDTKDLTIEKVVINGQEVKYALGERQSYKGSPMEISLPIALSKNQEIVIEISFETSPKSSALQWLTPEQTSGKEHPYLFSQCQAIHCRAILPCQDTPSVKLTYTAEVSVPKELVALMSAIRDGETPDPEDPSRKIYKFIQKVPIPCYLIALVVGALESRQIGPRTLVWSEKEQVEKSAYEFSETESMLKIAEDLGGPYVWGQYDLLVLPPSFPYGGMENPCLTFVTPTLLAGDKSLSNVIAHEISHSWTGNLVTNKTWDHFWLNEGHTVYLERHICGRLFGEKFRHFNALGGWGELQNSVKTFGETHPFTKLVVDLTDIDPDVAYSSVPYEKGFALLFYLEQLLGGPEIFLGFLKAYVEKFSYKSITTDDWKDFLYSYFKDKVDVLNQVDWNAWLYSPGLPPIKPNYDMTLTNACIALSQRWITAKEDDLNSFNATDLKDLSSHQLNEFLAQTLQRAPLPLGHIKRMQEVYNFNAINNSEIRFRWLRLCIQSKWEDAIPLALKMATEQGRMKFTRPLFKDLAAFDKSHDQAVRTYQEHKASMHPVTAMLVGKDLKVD
Outline: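 Baculovirus/Sf-9-expressed human LTA4H (10 ng) was preincubated 10 min at rt with compound in assay buffer (10% DMSO in compound dilution), then reacted 30 min at rt with LTA4 free acid made from its methyl ester. LTB4 produced was measured by ELISA after dilution; IC50 from non-linear regression, single or averaged determinations.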

[5] = system: LTB4 production in murine blood (LTA4H); assay: LTB4 production by calcium ionophore-stimulated murine blood for LTA4H inhibitor activity; type: cell-based, CD-1 mice; settings: Mus musculus; murine blood diluted 1 in 15, A23187 stimulated; single determination or average; mark after value = form tested: ′ free base, ″ hydrochloride, ^ formate; read-out: IC50
Outline: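 Heparinized blood from CD-1 mice was preincubated with compound for 15 min at 37° C, then stimulated with calcium ionophore A23187 (final 7 μg/mL) for 30 min. Centrifugation stopped the reaction, and LTB4 in the supernatant was measured by enzyme immunoassay. Values are single determinations or means of two or more.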

[6] = system: arachidonic acid-induced neutrophil influx in murine ear tissue; assay: Murine arachidonic acid-induced inflammation model: neutrophil influx (myeloperoxidase) in ear; type: in vivo, Balb/c mice; settings: Mus musculus; 30 mg/kg oral gavage, 60 min before topical arachidonic acid, ear biopsy after 3 h; percent inhibition of neutrophil influx; read-out: % Inh. MPO
[7] = system: ex vivo calcium ionophore-stimulated LTB4 production in whole blood; assay: Murine arachidonic acid-induced inflammation model: ex vivo stimulated LTB4 production in blood; set-up: species or system Balb/c mice; settings: Mus musculus; 30 mg/kg oral gavage; blood diluted 1:1, A23187 stimulated ex vivo; percent inhibition of LTB4 production; read-out: % Inh. LTB4
[8] = rhLTA4H, LTB4 by immunoassay, single determination or average of two or more, mark after value = form tested: ′ free base, ″ hydrochloride, ^ formate, read-out: IC50

Row | IC50 [4, 8] [nM] | IC50 [5] [nM] | SMILES | ionophore-induced LTB4 production in mouse blood ex vivo [1] | ionophore-induced LTB4 production in rat peritoneum in vivo [2] | colitis symptoms (colitis symptoms) | airway hyperresponsiveness [3] | inhibition at 30 mg/kg [6] [%] | inhibition at 30 mg/kg [7] [%] | IC50 [4] [nM]
1 |  |  | CN(CCCOc1ccc(Cc2ccccc2)cc1)CCC(=O)O.Cl [SC57461] | caused inhibition | caused inhibition | significantly improved |  |  |  | 
2 |  |  | O=C(O)C1(c2ccc3c(c2)OC[C@H](Cc2ccc(-c4ccccc4)cc2)[C@H]3O)CCCC1 [CP-105,696] |  |  |  | reduced |  |  | 
3 | 140 | 110 | O=C1CCCN1C1CCN(Cc2cc3cc(Oc4nc5ncccc5s4)ccc3o2)CC1 [Example 96, 1-{1-[5-(Thiazolo[4,5-b]pyridin-2-yloxy)-benzofuran-2-ylmethyl]-piperidin-4-yl}-pyrrolidin-2-one] |  |  |  |  | 53 | 66 | 
4 | 3 | 169 | CC(=O)N1CCN(CCc2coc3cc(Oc4nc5ncccc5s4)ccc23)CC1 [Example 257, 1-(4-{2-[6-(Thiazolo[4,5-b]pyridin-2-yloxy)-benzofuran-3-yl]-ethyl}-piperazin-1-yl)-ethanone] |  |  |  |  | 87 | 68.7 | 
5 | 22 | 88 | CC(=O)N1C[C@@H]2C[C@H]1CN2CCc1coc2cc(Oc3nc4ncccc4s3)ccc12 [Example 258, (1S,4S)-1-(5-{2-[6-(Thiazolo[4,5-b]pyridin-2-yloxy)-benzofuran-3-yl]-ethyl}-2,5-diaza-bicyclo[2.2.1]hept-2-yl)-ethanone] |  |  |  |  | 72 | 70.9 | 
6 | 1 | 26 | CC(=O)NCC1CCN(Cc2coc3cc(Oc4nc5ncccc5s4)ccc23)CC1 [Example 162, N-{1-[6-(Thiazolo[4,5-b]pyridin-2-yloxy)-benzofuran-3-ylmethyl]-piperidin-4-ylmethyl}-acetamide] |  |  |  |  | 87 | 90 | 
7 | 61 | 260 | c1cnc2nc(Oc3ccc4c(CCN5CCOCC5)coc4c3)sc2c1 [Example 256, 2-[3-(2-Morpholin-4-yl-ethyl)-benzofuran-6-yloxy]-thiazolo[4,5-b]pyridine] |  |  |  |  | 83 | 68.4 | 

Row | SMILES | IC50 [4, 8] [nM] | IC50 [5] [nM] | ionophore-induced LTB4 production in mouse blood ex vivo [1] | ionophore-induced LTB4 production in rat peritoneum in vivo [2] | colitis symptoms (colitis symptoms) | airway hyperresponsiveness [3] | inhibition at 30 mg/kg [6] [%] | inhibition at 30 mg/kg [7] [%] | IC50 [4] [nM]
8 | CC(=O)N1C[C@H]2CC[C@@H](C1)N2Cc1cc2cc(Oc3nc4ncccc4s3)ccc2o1 [Example 93, meso-1-{8-[5-(Thiazolo[4,5-b]pyridin-2-yloxy)-benzofuran-2-ylmethyl]-3,8-diaza-bicyclo[3.2.1]oct-3-yl}-ethanone] | 3 | 23 |  |  |  |  | 87 | 85 | 
9 | CC(=O)N[C@@H]1C[C@H]2CC[C@@H](C1)N2Cc1coc2cc(Oc3nc4ncccc4s3)ccc12 [Example 208, meso-exo-N-{8-[6-(Thiazolo[4,5-b]pyridin-2-yloxy)-benzofuran-3-ylmethyl]-8-aza-bicyclo[3.2.1]oct-3-yl}-acetamide] |  | 24 |  |  |  |  | 92 | 93 | 1
10 | CC(=O)N1C[C@H]2CC[C@@H](C1)N2Cc1coc2cc(Oc3nc4ncccc4s3)ccc12 [Example 153, 1-{8-[6-(Thiazolo[4,5-b]pyridin-2-yloxy)-benzofuran-3-ylmethyl]-3,8-diaza-bicyclo[3.2.1]oct-3-yl}-ethanone] | 2 | 25 |  |  |  |  | 82 | 84 | 
11 | NC(=O)N1CC2CCC(C1)N2C(=O)c1coc2cc(Oc3nc4ncccc4s3)ccc12 [Example 374, meso-8-[6-(Thiazolo[4,5-b]pyridin-2-yloxy)-benzofuran-3-carbonyl]-3,8-diaza-bicyclo[3.2.1]octane-3-carboxylic acid amide] | 11 | 50 |  |  |  |  | 37 | 7 | 
